Measurements taken from US20130267544A1, “Use of LP-PLA2 Inhibitors in the Treatment and Prevention of Eye Diseases” (priority 2010, published 2013).
Entries after “also recorded” stand apart in the source; their conditions may differ.

Experiments:
[1] = system: DMHC pigs (blood-brain barrier); assay: IgG leak from brain blood vessels (BBB permeability) in diabetic/hypercholesterolemic pigs; type: in vivo, pig; conditions: 10 mg/kg/day orally for 24 weeks
Experimental: (§1) Yorkshire domestic farm pigs (˜25-35 kg; Archer Farms) were induced for diabetes with a single intravenous injection of 125 mg/kg streptozotocin (Mohler et al., 2008). Blood glucose and cholesterol were closely monitored. Three days after diabetes induction, a hyperlipidemic diet was used to achieve hypercholesterolemia with serum cholesterol concentrations clamped between 400 and 800 mg/dl. Because pigs have a variable serum cholesterol response to a high cholesterol diet, cholesterol concentrations were checked every two months. […]
(§2) Specimens from the brains of 29 pigs, included 3 untreated controls; 13 DMHC and 13 DMHC treated with Darapladib (Rx), were embedded in paraffin wax. Each brain specimen was serially sectioned, and the first section representing each sample was stained with Hematoxylin and Eosin (H+E) which permitted cortical from non-cortical regions based on differential staining to be determined. Full (large) face tissue blocks were used throughout this study in an effort to maximize the amount of tissue analyzed so as to favor subsequent quantification. The total areas (in sq. mm) of cortical and non-cortical brain tissue in each section were measured in H+E− stained sections using computer-assisted image analysis and Image Pro Plus software. […]

[2] = system: DMHC pigs (Abeta42 in cerebral cortex); assay: Abeta42 amount and distribution in cerebral cortex of DMHC pig brain; type: in vivo; conditions: 10 mg/kg/day for 24 weeks
Experimental: as §1, §2

DM/HC pigs = assay: Behavioural observation of DM/HC pigs; type: in vivo, pig; conditions: 10 mg/kg/day, vs DM/HC control animals
Experimental: Yorkshire domestic farm pigs (˜25-35 kg; Archer Farms) were induced for diabetes with a single intravenous injection of 125 mg/kg streptozotocin (Mohler et al., 2008). Blood glucose and cholesterol were closely monitored. Three days after diabetes induction, a hyperlipidemic diet was used to achieve hypercholesterolemia with serum cholesterol concentrations clamped between 400 and 800 mg/dl. Because pigs have a variable serum cholesterol response to a high cholesterol diet, cholesterol concentrations were checked every two months. One month after DMHC induction, pigs were randomly assigned into either a control group or a treatment group receiving 10 mg/kg/d orally of the selective Lp-PLA2 inhibitor Darapladib (GlaxoSmithKline). Pigs were sacrificed after 28 weeks after induction (that is, 24 weeks after initiation of treatment). At the time of completion of the study, there were 17 pigs in the control group and 20 in the Darapladib-treated group, as three pigs in the control group were excluded from analysis because of persistently elevated cholesterol levels. […] The specific experiment was published (Wilensky et al., 2008) but no vascular leak data was presented in that publication.

Lp-PLA2 = Lp-PLA2 (Oryctolagus cuniculus, UniProt G1SE06); conditions: rabbits on cholesterol/copper diet, 10 mg/kg daily s.c. from day 1-72
Experimental: 3-4 month SPF male New Zealand White rabbits were purchased from Covance (Denver, Pa.), individually housed and had ad libitum access to rabbit chow and water on a 12/12 h light/dark cycle. Experiments were repeated twice with animals arriving 3 weeks apart. Rabbits were randomly assigned to five treatment groups with a sample size of 8 animals per group. 32 Rabbits were placed on cholesterol/copper diet and 8 rabbits fed normal chow. Cholesterol/copper diet consisted of 160 g per day of commercially produced diet (Purina Mills High Fibre Diet) supplemented or not with 2% cholesterol. Copper sulphate (0.12 mg/l) was added to drinking water of rabbits assigned the cholesterol supplemented diet.
Animals were weighed and drug or vehicle administration delivered at 3 ml/kg to affect a 10 mg/kg dose by subcutaneous injection in the neck fold.
Six groups of animals consisting of 8 animals were assigned to the following treatment groups. Groups 1-5 were maintained on the cholesterol supplemented diet with copper sulphate in the drinking water.
Lp-PLA2 activity was measured in plasma samples collected at days 1, 29, 32 and 72 using proprietary GSK techniques.

[3] = system: STZ-induced diabetic SD rats; conditions: first study, 10 mg/kg/d i.p. from day 4
Experimental: Male SD rats, 6 weeks of age and weighing 180-200 g, were used in this study; the rats had free access to food and water and were maintained in cages in an environmentally controlled room with a 12 hour light-dark cycle. Diabetes was induced by following dosing of animals with streptozotocin (50 mg/kg/day dosed i.p. for each of the first 3 days of the protocol) in 10 mM sodium citrate-buffer pH 4.6. […] Animals which maintained an elevated blood glucose level of over 9 mM were deemed diabetic.
The retinal images were scanned by a commercially available Fourier-domain OCT (RTVue-100; version 2.1; Optovue, Inc., California, USA). Super-luminescent diode light source with a central wavelength of 840 nm and a full bandwidth of 50 nm was adapted to the OCT. The retinal thickness was accessed by the automatic software of RTVue scanner with manual adjusting. The retinal thickness was defined from layer of retinal pigment eitheluim (RPE) to retinal ganglion cell layer (GCL).
Two separate studies were conducted. Retinal images were taken on experimental day 4, 10, 13, 17, 22, 28 and 31 for the second study and day 0, 4, 7, 10, 14 and 18 for the first study. Animals were anesthetized by inhalation of 5% isoflourane and pupils were diluted with 1% tropicamide and 1% phenylephrine. Prior to OCT analysis animals were fixed on a support frame and the eye to be imaged positioned to align with the center of the scan beam perpendicular to the fundus. […] After imaging, the animals were recovered and returned to cages. Retinal thickness from six time points of OCT measurement were analyzed by repeated measures analysis of variance (ANOVA) using Prism software. […] All data were expressed as mean value±SEM.

rat Lp-PLA2 enzyme = conditions: compared with Lp-PLA2 inhibitor '495
[4] = system: rat brain microvascular endothelial cells co-cultured with rat brain astrocytes; assay: Permeability of Lucifer yellow in BMEC-astrocyte co-cultures; type: cell-based; conditions: lysoPC 0.3-10 ug/mL added to apical side, 90 min
Experimental: (§3) Three-week-old Sprague-Dawley (SD) rats were sacrificed by cervical dislocation. After white matter, meninges and macroscopic pial vessels were removed, the gray matter was thoroughly triturated in ice-cold Dulbecco's modified Eagle's medium (DMEM). The tissue was then digested in DMEM (7 ml for 5 rat brains) containing collagenease II (1 mg/ml) and DNase I (39 U/ml) at 37° C. for 1 h with shaking speed of 130 rpm. The digested tissue was diluted with the same volume of DMEM and centrifuged at 1000 g for 8 min at 4° C. The cell pellet was re-suspended in a 20% bovine serum albumin (BSA)-DMEM solution and centrifuged at 1000 g for 20 min at 4° C. The microvessels obtained in the pellet were further digested with collagenase-dispase (1 mg/mL) and DNase I (39 U/ml) in DMEM (3 ml for 5 rat brains) for 0.5 h at 37° C. […] After 2 days of puromycin treatment, the culture medium was replaced with supplemented EBM®2 for another 2 days of maintenance before they were ready for construction of co-cultured model. […]
(§4) The astrocytes suspended in 10% FBS-DMEM were seeded on to Poly-L-lysine coated 24-well culture plate at passage between 1 and 4 at a density of 1.5×10^4/cm^2. […] Transendothelial electrical resistance (TEER) of the monolayers were determined everyday using Millicell-ERS (Millipore, Bedford, Mass.) and when the TEER >150 Ω·cm^2, the monolayer was ready for transport experiment. […]

[5] = system: rat brain microvascular endothelial cells co-cultured with rat brain astrocytes; assay: Transendothelial electrical resistance of BMEC monolayers; type: cell-based; conditions: after addition of lysoPC to endothelial monolayers
Experimental: as §3, §4

Sequence of Lp-PLA2 (G1SE06 22-423): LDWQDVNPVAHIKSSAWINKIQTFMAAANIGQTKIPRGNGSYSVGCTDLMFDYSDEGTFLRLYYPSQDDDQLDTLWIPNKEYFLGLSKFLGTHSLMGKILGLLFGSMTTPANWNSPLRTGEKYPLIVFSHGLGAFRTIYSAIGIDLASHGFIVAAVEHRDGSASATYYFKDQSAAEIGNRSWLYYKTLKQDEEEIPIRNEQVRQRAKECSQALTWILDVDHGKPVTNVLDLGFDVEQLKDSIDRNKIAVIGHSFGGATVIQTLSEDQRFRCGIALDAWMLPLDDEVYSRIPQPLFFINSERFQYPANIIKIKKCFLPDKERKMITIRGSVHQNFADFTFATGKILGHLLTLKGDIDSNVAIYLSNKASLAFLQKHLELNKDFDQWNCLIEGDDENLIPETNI

CCN(CC)CCN(Cc1ccc(-c2ccc(C(F)(F)F)cc2)cc1)C(=O)Cn1c(SCc2ccc(F)cc2)nc(=O)c2c1CCC2 [Darapladib, N-[2-(diethylamino)ethyl]-2-[[(4-fluorophenyl)methyl]thio]-4,5,6,7-tetrahydro-4-oxo-N-[[4′-(trifluoromethyl)[1,1′-biphenyl]-4-yl]methyl]-1H-cyclopentapyrimidine-1-acetamide]
density of arteriolar leaks in the cortex (number of leaking arterioles per sq mm) [1]: reduced somewhat | extent of vascular (BBB) leaks ([1]; 10 mg/kg/day): effective at reducing the extent of leaks in all vessel types; also recorded: highly efficacious effect in reducing the permeability of the BBB; also recorded: somewhat reduced | total amount of Abeta42 (Abeta42 load) in the cerebral cortex [2]: reduced amyloid deposition; also recorded: reduced the total amount of Abeta42 | density of Abeta42-positive neurons in cerebral cortex ([2]; entire brain): reduction in the number (density) of Abeta42 peptide positive neurones; also recorded: levels comparable to controls | general wellness (activity and alertness) (DM/HC pigs): general wellness effect (increased activity and alertness)

CCN1CCC(N(Cc2ccc(-c3ccc(Cl)cc3)cc2)C(=O)Cn2c(CCc3cccc(F)c3F)nc(=O)c3ccccc32)CC1.O=C(O)C(O)C(O)C(=O)O [Lp-PLA2 inhibitor '859, N-(1-ethylpiperidin-4-yl)-2-(2-(2-(2,3-difluorophenyl)-ethyl)-4-oxo-4H-quninazolin-1-yl)-N-(4′-chloro-biphenyl-4-ylmethyl)acetamide bitartrate]
plasma Lp-PLA2 activity (Lp-PLA2): significantly lower levels of Lp-PLA2 activity | STZ-induced retinal thinning (neuroretinal thickness by OCT) [3]: not statistically significantly different from vehicle only treated animals | potency as inhibitor of rat Lp-PLA2 enzyme, relative (rat Lp-PLA2 enzyme): significantly less potent inhibitor

lysophosphatidylcholine [lysoPC]
transport of Lucifer yellow across endothelial monolayer [4]: dose-dependent reduction in the transport of Lucifer yellow | transendothelial electrical resistance (TEER) [5]: reduction in the transendothelial electrical resistance
